The record followed here is US9951065B2 (Gilead Sciences, Inc., priority 2015, dated 2018).

Usually EC50 stands for the concentration that produces a half-maximal response. Higher therefore signals a need for much substance.

Bounds are passed on as bounds.

The target of one experiment is T1, IDO1 (Homo sapiens, UniProt P14902).
T1 construct: HeLa cells were treated with a test compound in the presence of IFNγ, which induces IDO1 expression; host or cells: H1-HeLa cells, IDO1 induced with IFNγ
T1 sequence (P14902 whole entry): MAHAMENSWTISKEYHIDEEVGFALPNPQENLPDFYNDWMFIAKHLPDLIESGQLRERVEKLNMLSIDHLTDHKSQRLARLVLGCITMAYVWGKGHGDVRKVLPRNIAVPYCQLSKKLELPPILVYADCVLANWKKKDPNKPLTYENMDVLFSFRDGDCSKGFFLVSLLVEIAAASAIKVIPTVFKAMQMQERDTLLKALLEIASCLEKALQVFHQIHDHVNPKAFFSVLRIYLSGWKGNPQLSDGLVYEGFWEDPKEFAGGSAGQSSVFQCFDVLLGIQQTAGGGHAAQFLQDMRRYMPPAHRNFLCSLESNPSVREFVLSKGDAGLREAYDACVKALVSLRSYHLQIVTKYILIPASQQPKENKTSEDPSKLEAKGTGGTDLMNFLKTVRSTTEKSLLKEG
In words: Cell-based (HeLa) assay for measurement of IDO1 inhibition (kynurenine levels in supernatant after IFNγ induction). Particulars: HeLa cells, IFNγ-induced IDO1, kynurenine in supernatant after 48 hour incubation; geometric mean of a minimum of four determinations. The method in brief:
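IDO1 activity is read as kynurenine released into the medium, detected with Ehrlich's reagent (p-dimethylaminobenzaldehyde) at 480 nm after TCA treatment. HeLa cells were exposed 48 h to compounds in 0.5% DMSO alongside IFNγ induction. Values normalized to no-IFNγ and IFNγ controls; four-parameter EC50 given as geometric mean of ≥4 determinations.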
Regarding `Cc1c[nH]c(-c2nc3nccc(/C(=N/O)Nc4ccc(F)c(Cl)c4)c3[nH]2)n1` [Example 151, N-(3-Chloro-4-fluorophenyl)-N′-hydroxy-2-(4-methyl-1H-imidazol-2-yl)-1H-imidazo[4,5-b]pyridine-7-carboximidamide], the response was half-maximal at 463 nM (EC50). `O/N=C(\Nc1ccc(F)c(Cl)c1)c1ccnc2nc(CNCc3ccccc3)[nH]c12` [Example 115, 2-((Benzylamino)methyl)-N-(3-chloro-4-fluorophenyl)-N′-hydroxy-1H-imidazo[4,5-b]pyridine-7-carboximidamide] yielded an EC50 of 1760 nM. Compared with the last molecule, the EC50 is about 3.8-fold higher. Same read-out and setting: to `CC(C)CNCc1nc2nccc(/C(=N/O)Nc3ccc(F)c(Cl)c3)c2[nH]1` [Example 196, N-(3-Chloro-4-fluorophenyl)-N′-hydroxy-2-((isobutylamino)methyl)-1H-imidazo[4,5-b]pyridine-7-carboximidamide] belongs 1330 nM; to `O/N=C(\Nc1ccc(F)c(Cl)c1)c1ccnc2nc(C(O)C3CC3)[nH]c12` (centres unmarked) [Example 174, N-(3-Chloro-4-fluorophenyl)-2-(cyclopropyl(hydroxy)methyl)-N′-hydroxy-1H-imidazo[4,5-b]pyridine-7-carboximidamide], 7090 nM. Still for that read-out and setting: then `NCc1nc2c(F)c(F)cc(/C(=N/O)Nc3cccc(Cl)c3)c2[nH]1` [Example 31, 2-(Aminomethyl)-N-(3-chlorophenyl)-4,5-difluoro-N′-hydroxy-1H-benzo[d]imidazole-7-carboximidamide], with 1680 nM; and `CS(=O)(=O)NCCc1nc2nccc(/C(=N/O)Nc3ccc(F)c(Cl)c3)c2[nH]1` [Example 266, N-(3-chloro-4-fluorophenyl)-N′-hydroxy-2-(2-(methylsulfonamido)ethyl)-1H-imidazo[4,5-b]pyridine-7-carboximidamide], with greater than 10000 nM. On the same count and under the same terms, then `COC(=O)NCCc1nc2nccc(/C(=N/O)Nc3ccc(F)c(Cl)c3)c2[nH]1` [Example 273, Methyl (2-(7-(N-(3-chloro-4-fluorophenyl)-N′-hydroxycarbamimidoyl)-1H-imidazo[4,5-b]pyridin-2-yl)ethyl)carbamate], with greater than 10000 nM.

With `O/N=C(\Nc1ccc(F)c(Cl)c1)c1ccnc2nc(CCN3CCOCC3)[nH]c12` [Example 191, N-(3-Chloro-4-fluorophenyl)-N′-hydroxy-2-(2-morpholinoethyl)-1H-imidazo[4,5-b]pyridine-7-carboximidamide], a half-maximal effect (EC50) was put at 2820 nM. On the same count and under the same terms, to `Cc1nc2nccc(/C(=N/O)Nc3ccc(F)c(Cl)c3)c2[nH]1` [Example 107, N-(3-Chloro-4-fluorophenyl)-N′-hydroxy-2-methyl-1H-imidazo[4,5-b]pyridine-7-carboximidamide] belongs 1920 nM.

In the case of `CCOC(=O)Nc1nc2nccc(/C(=N/O)Nc3ccc(F)c(Cl)c3)c2[nH]1` [Example 160, Ethyl (7-(N-(3-chloro-4-fluorophenyl)-N′-hydroxycarbamimidoyl)-1H-imidazo[4,5-b]pyridin-2-yl)carbamate], the EC50 was determined as 423 nM. This EC50 lies about 4.5-fold lower than the previous one. The same measure, in the same setting: then `O/N=C(\Nc1ccc(F)c(Cl)c1)c1ccnc2nc(CCN3CCCCCC3)[nH]c12` [Example 258, 2-(2-(azepan-1-yl)ethyl)-N-(3-chloro-4-fluorophenyl)-N′-hydroxy-1H-imidazo[4,5-b]pyridine-7-carboximidamide], with 844 nM; and `COCCN1CCC(Nc2nc3nccc(/C(=N/O)Nc4ccc(F)c(Cl)c4)c3[nH]2)C1` (centres unmarked) [Example 281, N-(3-chloro-4-fluorophenyl)-N′-hydroxy-2-((1-(2-methoxyethyl)pyrrolidin-3-yl)amino)-1H-imidazo[4,5-b]pyridine-7-carboximidamide], with 1260 nM; and `O/N=C(\Nc1ccc(F)c(Cl)c1)c1ccnc2nc(-c3ccc[nH]3)[nH]c12` [Example 148, N-(3-Chloro-4-fluorophenyl)-N′-hydroxy-2-(1H-pyrrol-2-yl)-1H-imidazo[4,5-b]pyridine-7-carboximidamide], with 2230 nM. Regarding `NCc1nc2nccc(/C(=N/O)Nc3ccc(F)c(Cl)c3)c2[nH]1` [Example 179, 2-(Aminomethyl)-N-(3-chloro-4-fluorophenyl)-N′-hydroxy-1H-imidazo[4,5-b]pyridine-7-carboximidamide], a half-maximal effect (EC50) was put at 7660 nM.

The same experiment, now with this note: HeLa cells, IFNγ-induced IDO1, kynurenine in supernatant, 48 hour incubation; geometric mean of a minimum of four determinations.
As to `CCN(CC)[C@H]1COC[C@@H]1Nc1nc2nccc(C(=NO)Nc3ccc(F)c(Cl)c3)c2[nH]1` [Example 480, N-(3-chloro-4-fluorophenyl)-2-(((3R,4R)-4-(diethylamino)tetrahydrofuran-3-yl)amino)-N′-hydroxy-1H-imidazo[4,5-b]pyridine-7-carboximidamide], the EC50 is 1190 nM. On the same count and under the same terms, then `O/N=C(\Nc1ccc(F)c(Cl)c1)c1cc(F)c(F)c2nc(NCCN3CC[C@H](O)C3)[nH]c12` [Example 452, (S)—N-(3-chloro-4-fluorophenyl)-4,5-difluoro-N′-hydroxy-2-((2-(3-hydroxypyrrolidin-1-yl)ethyl)amino)-1H-benzo[d]imidazole-7-carboximidamide], with 568 nM. `CN(CCc1nc2nccc(/C(=N/O)Nc3ccc(F)c(Cl)c3)c2[nH]1)CC1CCCCC1` [Example 391, N-(3-chloro-4-fluorophenyl)-2-(2-((cyclohexylmethyl)(methyl)amino)ethyl)-N′-hydroxy-1H-imidazo[4,5-b]pyridine-7-carboximidamide] showed a concentration for a half-maximal effect (EC50) of 1480 nM. For the molecule `CS(=O)(=O)CCNc1nc2nccc(/C(=N/O)Nc3ccc(F)c(Cl)c3)c2[nH]1` [Example 493, N-(3-chloro-4-fluorophenyl)-N′-hydroxy-2-((2-(methylsulfonyl)ethyl)amino)-1H-imidazo[4,5-b]pyridine-7-carboximidamide], the EC50 came out at 7210 nM.

For the molecule `COCCN1CCCC(Nc2nc3c(F)c(F)cc(/C(=N/O)Nc4ccc(F)c(Cl)c4)c3[nH]2)C1` (centres unmarked) [Example 453, N-(3-chloro-4-fluorophenyl)-4,5-difluoro-N′-hydroxy-2-((1-(2-methoxyethyl)piperidin-3-yl)amino)-1H-benzo[d]imidazole-7-carboximidamide], the EC50 was found to be 651 nM. Molecule `CN(C)CCCNc1nc2c(F)c(F)cc(/C(=N/O)Nc3cccc(Br)c3)c2[nH]1` [Example 386, N-(3-bromophenyl)-2-((3-(dimethylamino)propyl)amino)-4,5-difluoro-N′-hydroxy-1H-benzo[d]imidazole-7-carboximidamide] showed an EC50 of 559 nM.

`CN(C)CCNc1nc2c(F)ccc(/C(=N/O)Nc3ccc(F)c(Br)c3)c2[nH]1` [Example 382, N-(3-bromo-4-fluorophenyl)-2-((2-(dimethylamino)ethyl)amino)-4-fluoro-N′-hydroxy-1H-benzo[d]imidazole-7-carboximidamide] showed an EC50 of 608 nM. Regarding `CN(C)CCSc1nc2nccc(/C(=N/O)Nc3ccc(F)c(Cl)c3)c2[nH]1` [Example 487, N-(3-chloro-4-fluorophenyl)-2-((2-(dimethylamino)ethyl)thio)-N′-hydroxy-1H-imidazo[4,5-b]pyridine-7-carboximidamide], it took 1360 nM to reach a half-maximal effect (EC50). This EC50 lies about 2.2-fold higher than the previous one. On the same count and under the same terms, to `Nc1nc2cc(F)cc(/C(=N/O)Nc3cccc(Cl)c3)c2[nH]1` [Example 371, 2-amino-N-(3-chlorophenyl)-5-fluoro-N′-hydroxy-1H-benzo[d]imidazole-7-carboximidamide] belongs 644 nM.
